Experimental data reported in patent US10835533B2, “1 -((3S,4R)-4-(3-fluorophenyl)-1-(2-methoxyethyl)pyrrolidin-3-yl)-3-(4-methyl-3-(2-methylpyrimidin-5-yl)-1-phenyl-1H-pyrazol-5-yl)urea as a TrkA kinase inhibitor” (Array BioPharma Inc., priority 2014, dated 2020).

Assays:
Experiment in all cases: KinaseProfiler kinase profiling
Format in all cases: biochemical
Details in all cases: 10 μM, ATP near Km
[1] = target: T1, Flt4 (Homo sapiens, UniProt P35916)
T1 construct: purchased Millipore, Inc. (KinaseProfiler service)
In short: (§1)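 ATP near Km for the individual kinase; inhibitor fixed at 10 μM. Figures are POC averages from duplicate determinations.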

[2] = target: T2, STK33 (Homo sapiens, UniProt Q9BYT3)
T2 construct: purchased Millipore, Inc. (KinaseProfiler service)
In short: as §1

[3] = target: T3, EphB3 (Homo sapiens, UniProt P54753)
T3 construct: purchased Millipore, Inc. (KinaseProfiler service)
In short: as §1

[4] = target: T4, PKCgamma (Homo sapiens, UniProt P05129)
T4 construct: purchased Millipore, Inc. (KinaseProfiler service)
In short: as §1

[5] = target: T5, CAMK1 (Homo sapiens, UniProt Q14012)
T5 construct: purchased Millipore, Inc. (KinaseProfiler service)
In short: as §1

[6] = target: T6, CK1gamma3 (Homo sapiens, UniProt Q9Y6M4)
T6 construct: purchased Millipore, Inc. (KinaseProfiler service)
In short: as §1

[7] = target: T7, Ret (Homo sapiens, UniProt P07949)
T7 construct: purchased Millipore, Inc. (KinaseProfiler service)
In short: as §1

[8] = target: T8, Met (Homo sapiens, UniProt P08581)
T8 construct: purchased Millipore, Inc. (KinaseProfiler service)
T8 sequence (P08581 25-1390): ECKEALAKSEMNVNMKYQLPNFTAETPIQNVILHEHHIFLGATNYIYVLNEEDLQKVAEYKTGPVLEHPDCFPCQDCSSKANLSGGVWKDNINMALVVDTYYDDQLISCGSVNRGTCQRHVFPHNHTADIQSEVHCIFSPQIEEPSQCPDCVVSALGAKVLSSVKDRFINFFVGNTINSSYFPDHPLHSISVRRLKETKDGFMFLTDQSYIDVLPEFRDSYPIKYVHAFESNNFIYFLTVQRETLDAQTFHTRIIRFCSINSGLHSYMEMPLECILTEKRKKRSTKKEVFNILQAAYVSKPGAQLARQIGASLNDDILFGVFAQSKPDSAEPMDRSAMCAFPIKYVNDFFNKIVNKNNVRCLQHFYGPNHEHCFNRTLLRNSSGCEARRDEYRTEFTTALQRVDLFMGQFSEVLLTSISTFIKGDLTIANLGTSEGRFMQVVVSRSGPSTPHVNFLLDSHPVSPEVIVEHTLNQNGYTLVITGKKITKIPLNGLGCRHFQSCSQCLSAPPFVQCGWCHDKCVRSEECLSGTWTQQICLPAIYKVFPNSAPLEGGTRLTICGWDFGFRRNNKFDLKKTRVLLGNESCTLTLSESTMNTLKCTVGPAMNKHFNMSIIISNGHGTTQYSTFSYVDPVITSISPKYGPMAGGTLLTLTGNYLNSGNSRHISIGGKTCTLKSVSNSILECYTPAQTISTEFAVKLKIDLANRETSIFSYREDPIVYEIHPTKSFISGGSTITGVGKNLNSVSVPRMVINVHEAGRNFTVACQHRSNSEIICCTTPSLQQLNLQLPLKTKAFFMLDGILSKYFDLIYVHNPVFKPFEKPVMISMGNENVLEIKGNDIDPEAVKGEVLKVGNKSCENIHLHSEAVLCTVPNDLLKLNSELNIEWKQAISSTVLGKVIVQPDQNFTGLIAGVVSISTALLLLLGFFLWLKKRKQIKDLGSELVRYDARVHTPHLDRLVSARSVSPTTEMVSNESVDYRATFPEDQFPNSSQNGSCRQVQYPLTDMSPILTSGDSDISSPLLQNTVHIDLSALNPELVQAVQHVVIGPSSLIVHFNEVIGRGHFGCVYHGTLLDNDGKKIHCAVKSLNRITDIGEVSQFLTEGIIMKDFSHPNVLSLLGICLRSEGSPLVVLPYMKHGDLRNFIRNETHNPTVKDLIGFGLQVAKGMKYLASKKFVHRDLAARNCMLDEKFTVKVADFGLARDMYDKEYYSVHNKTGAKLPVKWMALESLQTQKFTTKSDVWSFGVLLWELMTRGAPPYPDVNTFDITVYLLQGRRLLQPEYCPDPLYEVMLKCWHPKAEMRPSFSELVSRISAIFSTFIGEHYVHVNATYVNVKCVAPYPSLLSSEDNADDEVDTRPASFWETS
In short: as §1

[9] = target: T9, PAK6 (Homo sapiens, UniProt Q9NQU5)
T9 construct: purchased Millipore, Inc. (KinaseProfiler service)
T9 sequence (Q9NQU5 whole entry): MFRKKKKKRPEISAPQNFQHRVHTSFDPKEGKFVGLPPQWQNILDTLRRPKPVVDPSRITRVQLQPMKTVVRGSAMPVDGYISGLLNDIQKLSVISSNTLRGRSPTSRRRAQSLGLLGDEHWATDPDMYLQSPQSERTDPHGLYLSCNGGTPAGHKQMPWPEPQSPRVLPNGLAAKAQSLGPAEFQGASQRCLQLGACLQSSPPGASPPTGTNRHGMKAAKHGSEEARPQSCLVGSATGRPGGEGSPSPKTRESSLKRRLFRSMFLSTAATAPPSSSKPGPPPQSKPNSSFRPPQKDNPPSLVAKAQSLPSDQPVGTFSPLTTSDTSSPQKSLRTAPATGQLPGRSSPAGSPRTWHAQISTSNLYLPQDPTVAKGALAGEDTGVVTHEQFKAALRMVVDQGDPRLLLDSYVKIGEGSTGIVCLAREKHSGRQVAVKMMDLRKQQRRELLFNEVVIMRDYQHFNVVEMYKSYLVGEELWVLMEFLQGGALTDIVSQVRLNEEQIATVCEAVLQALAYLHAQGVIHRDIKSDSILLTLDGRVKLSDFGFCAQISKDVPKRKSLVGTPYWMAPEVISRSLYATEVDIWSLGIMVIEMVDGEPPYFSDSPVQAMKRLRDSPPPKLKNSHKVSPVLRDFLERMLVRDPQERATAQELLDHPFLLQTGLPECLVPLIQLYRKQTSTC
In short: as §1

[10] = target: T10, TAK1-TAB1 (Homo sapiens, UniProt O43318)
T10 construct: purchased Millipore, Inc. (KinaseProfiler service)
In short: as §1

[11] = target: T11, Txk (Homo sapiens, UniProt P42681)
T11 construct: purchased Millipore, Inc. (KinaseProfiler service)
In short: as §1

[12] = target: T12, FGFR2 (Homo sapiens, UniProt P21802)
T12 construct: purchased Millipore, Inc. (KinaseProfiler service)
In short: as §1

[13] = target: T13, WNK3 (Homo sapiens, UniProt Q9BYP7)
T13 construct: purchased Millipore, Inc. (KinaseProfiler service)
In short: as §1

[14] = target: T14, PRK2 (Homo sapiens, UniProt Q16513)
T14 construct: purchased Millipore, Inc. (KinaseProfiler service)
In short: as §1

[15] = target: T15, PRKG1alpha (Homo sapiens, UniProt Q13976)
T15 construct: purchased Millipore, Inc. (KinaseProfiler service)
In short: as §1

[16] = target: T16, Flt3 (Homo sapiens, UniProt P36888)
T16 construct: purchased Millipore, Inc. (KinaseProfiler service)
T16 sequence (P36888 27-993): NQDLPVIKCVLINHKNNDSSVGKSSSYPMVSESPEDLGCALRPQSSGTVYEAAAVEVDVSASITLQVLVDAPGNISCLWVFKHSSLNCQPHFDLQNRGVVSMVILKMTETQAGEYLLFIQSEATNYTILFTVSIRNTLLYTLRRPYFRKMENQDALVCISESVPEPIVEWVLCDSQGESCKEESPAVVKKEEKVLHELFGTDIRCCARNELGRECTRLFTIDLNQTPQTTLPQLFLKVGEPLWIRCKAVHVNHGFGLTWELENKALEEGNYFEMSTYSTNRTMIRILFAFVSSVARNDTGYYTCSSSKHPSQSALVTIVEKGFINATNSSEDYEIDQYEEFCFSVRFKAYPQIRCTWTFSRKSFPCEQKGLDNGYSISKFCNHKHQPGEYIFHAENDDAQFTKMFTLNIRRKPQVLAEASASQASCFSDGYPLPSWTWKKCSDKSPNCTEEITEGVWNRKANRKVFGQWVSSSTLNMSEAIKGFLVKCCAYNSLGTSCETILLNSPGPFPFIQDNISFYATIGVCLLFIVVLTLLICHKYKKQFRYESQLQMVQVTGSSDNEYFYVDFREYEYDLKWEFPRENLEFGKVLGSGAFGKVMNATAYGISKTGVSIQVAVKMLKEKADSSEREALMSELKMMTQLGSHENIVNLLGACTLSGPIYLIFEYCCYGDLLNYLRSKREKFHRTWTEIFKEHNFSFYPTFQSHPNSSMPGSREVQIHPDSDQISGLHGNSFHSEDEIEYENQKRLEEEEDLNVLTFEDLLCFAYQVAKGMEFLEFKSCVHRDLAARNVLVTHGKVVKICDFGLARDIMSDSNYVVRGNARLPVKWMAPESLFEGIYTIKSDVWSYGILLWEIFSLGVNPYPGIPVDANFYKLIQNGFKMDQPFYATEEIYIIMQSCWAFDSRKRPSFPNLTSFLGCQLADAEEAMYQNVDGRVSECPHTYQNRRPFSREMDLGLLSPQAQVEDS
In short: as §1

[17] = target: T17, MAP3K5 (Homo sapiens, UniProt Q99683)
T17 construct: purchased Millipore, Inc. (KinaseProfiler service)
In short: as §1

[18] = target: T18, CAMK1d (Homo sapiens, UniProt Q8IU85)
T18 construct: purchased Millipore, Inc. (KinaseProfiler service)
In short: as §1

[19] = target: T19, EphB4 (Homo sapiens, UniProt P54760)
T19 construct: purchased Millipore, Inc. (KinaseProfiler service)
In short: as §1

[20] = target: T20, NEK6 (Homo sapiens, UniProt Q9HC98)
T20 construct: purchased Millipore, Inc. (KinaseProfiler service)
In short: as §1

[21] = target: T21, GRK6 (Homo sapiens, UniProt P43250)
T21 construct: purchased Millipore, Inc. (KinaseProfiler service)
In short: as §1

[22] = target: T22, SGK1 (Homo sapiens, UniProt O00141)
T22 construct: purchased Millipore, Inc. (KinaseProfiler service)
In short: as §1

[23] = target: T23, MAP4K2 (Homo sapiens, UniProt Q12851)
T23 construct: purchased Millipore, Inc. (KinaseProfiler service)
In short: as §1

[24] = target: T24, FAK (Homo sapiens, UniProt Q05397)
T24 construct: purchased Millipore, Inc. (KinaseProfiler service)
In short: as §1

[25] = target: T25, BrSK1 (Homo sapiens, UniProt Q8TDC3)
T25 construct: purchased Millipore, Inc. (KinaseProfiler service)
In short: as §1

[26] = target: T26, MSK2 (Homo sapiens, UniProt O75676)
T26 construct: purchased Millipore, Inc. (KinaseProfiler service)
T26 sequence (O75676 whole entry): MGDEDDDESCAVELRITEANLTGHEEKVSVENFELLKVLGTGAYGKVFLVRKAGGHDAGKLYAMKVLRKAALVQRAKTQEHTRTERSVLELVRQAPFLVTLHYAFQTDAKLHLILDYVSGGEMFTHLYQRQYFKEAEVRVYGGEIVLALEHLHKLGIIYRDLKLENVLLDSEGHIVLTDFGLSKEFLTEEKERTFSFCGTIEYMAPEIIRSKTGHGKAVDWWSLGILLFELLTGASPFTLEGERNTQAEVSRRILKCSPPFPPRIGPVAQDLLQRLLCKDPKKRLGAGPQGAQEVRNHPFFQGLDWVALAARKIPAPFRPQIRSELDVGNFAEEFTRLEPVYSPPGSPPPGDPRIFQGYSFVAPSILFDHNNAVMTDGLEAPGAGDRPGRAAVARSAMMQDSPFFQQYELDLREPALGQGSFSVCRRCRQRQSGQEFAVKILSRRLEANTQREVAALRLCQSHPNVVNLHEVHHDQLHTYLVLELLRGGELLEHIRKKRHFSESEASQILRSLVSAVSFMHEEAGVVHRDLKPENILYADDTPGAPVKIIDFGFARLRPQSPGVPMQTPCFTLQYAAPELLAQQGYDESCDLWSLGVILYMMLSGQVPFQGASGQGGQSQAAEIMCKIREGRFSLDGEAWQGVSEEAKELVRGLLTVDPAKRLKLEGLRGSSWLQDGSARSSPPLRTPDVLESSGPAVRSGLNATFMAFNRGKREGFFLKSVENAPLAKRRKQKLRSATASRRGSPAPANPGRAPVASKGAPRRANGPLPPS
In short: as §1

[27] = target: T27, CHK2 (Homo sapiens, UniProt O96017)
T27 construct: purchased Millipore, Inc. (KinaseProfiler service)
In short: as §1

[28] = target: T28, FAK2 (Homo sapiens, UniProt Q14289)
T28 construct: purchased Millipore, Inc. (KinaseProfiler service)
In short: as §1

[29] = target: T29, LKB1 (Homo sapiens, UniProt Q15831)
T29 construct: purchased Millipore, Inc. (KinaseProfiler service)
In short: as §1

[30] = target: T30, Abl-P (Homo sapiens, UniProt P00519)
T30 construct: purchased Millipore, Inc. (KinaseProfiler service)
In short: as §1

[31] = target: T31, CK2alpha2 (Homo sapiens, UniProt P19784)
T31 construct: purchased Millipore, Inc. (KinaseProfiler service)
In short: as §1

[32] = target: T32, SGK3 (Homo sapiens, UniProt Q96BR1)
T32 construct: purchased Millipore, Inc. (KinaseProfiler service)
T32 sequence (Q96BR1 whole entry): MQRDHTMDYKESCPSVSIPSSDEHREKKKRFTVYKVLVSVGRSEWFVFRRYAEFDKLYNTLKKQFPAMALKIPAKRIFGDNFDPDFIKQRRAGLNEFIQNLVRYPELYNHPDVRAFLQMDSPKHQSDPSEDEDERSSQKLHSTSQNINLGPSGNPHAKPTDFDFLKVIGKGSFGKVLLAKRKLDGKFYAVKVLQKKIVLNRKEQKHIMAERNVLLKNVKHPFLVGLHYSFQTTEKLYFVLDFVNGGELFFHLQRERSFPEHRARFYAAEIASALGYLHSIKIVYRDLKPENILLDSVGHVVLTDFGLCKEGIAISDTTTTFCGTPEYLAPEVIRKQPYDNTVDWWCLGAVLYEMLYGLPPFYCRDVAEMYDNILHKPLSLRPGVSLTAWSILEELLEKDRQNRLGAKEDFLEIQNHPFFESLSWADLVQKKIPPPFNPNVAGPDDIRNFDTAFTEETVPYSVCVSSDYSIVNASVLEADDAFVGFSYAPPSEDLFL
In short: as §1

[33] = target: T33, CDK1/cyclinB (Homo sapiens, UniProt P06493)
T33 construct: purchased Millipore, Inc. (KinaseProfiler service)
In short: as §1

[34] = target: T34, NEK2 (Homo sapiens, UniProt P51955)
T34 construct: purchased Millipore, Inc. (KinaseProfiler service)
In short: as §1

[35] = target: T35, MST2 (Homo sapiens, UniProt Q13188)
T35 construct: purchased Millipore, Inc. (KinaseProfiler service)
In short: as §1

[36] = target: T36, Fms (Homo sapiens, UniProt P07333)
T36 construct: purchased Millipore, Inc. (KinaseProfiler service)
In short: as §1

[37] = target: T37, IR (Homo sapiens, UniProt P06213)
T37 construct: purchased Millipore, Inc. (KinaseProfiler service)
In short: as §1

[38] = target: T38, HIPK3 (Homo sapiens, UniProt Q9H422)
T38 construct: purchased Millipore, Inc. (KinaseProfiler service)
In short: as §1

[39] = target: T39, AURKA (Homo sapiens, UniProt O14965)
T39 construct: purchased Millipore, Inc. (KinaseProfiler service)
In short: as §1

[40] = target: T40, TAO3 (Homo sapiens, UniProt Q9H2K8)
T40 construct: purchased Millipore, Inc. (KinaseProfiler service)
In short: as §1

[41] = target: T41, GRK7 (Homo sapiens, UniProt Q8WTQ7)
T41 construct: purchased Millipore, Inc. (KinaseProfiler service)
In short: as §1

- Avg POC [1]: 98.5 POC
- Avg POC [2]: 101 POC
- Avg POC [3]: 89.5 POC
- Avg POC [4]: 98 POC
- Avg POC [5]: 104.5 POC
- Avg POC [6]: 104.5 POC
- Avg POC [7]: 111.5 POC
- Avg POC [8]: 124.5 POC
- Avg POC [9]: 114.5 POC
- Avg POC [10]: 101.5 POC
- Avg POC [11]: 67 POC
- Avg POC [12]: 99 POC
- Avg POC [13]: 115.5 POC
- Avg POC [14]: 116 POC
- Avg POC [15]: 109.5 POC
- Avg POC [16]: 102 POC
- Avg POC [17]: 101 POC
- Avg POC [18]: 130 POC
- Avg POC [19]: 102 POC
- Avg POC [20]: 96 POC
- Avg POC [21]: 98 POC
- Avg POC [22]: 105 POC
- Avg POC [23]: 101 POC
- Avg POC [24]: 100.5 POC
- Avg POC [25]: 98 POC
- Avg POC [26]: 116.5 POC
- Avg POC [27]: 102.5 POC
- Avg POC [28]: 92.5 POC
- Avg POC [29]: 104.5 POC
- Avg POC [30]: 110.5 POC
- Avg POC [31]: 106 POC
- Avg POC [32]: 112.5 POC
- Avg POC [33]: 108 POC
- Avg POC [34]: 95 POC
- Avg POC [35]: 102 POC
- Avg POC [36]: 103 POC
- Avg POC [37]: 84.5 POC
- Avg POC [38]: 90 POC
- Avg POC [39]: 115 POC
- Avg POC [40]: 103 POC
- Avg POC [41]: 101 POC
SMILES: COCCN1C[C@@H](NC(=O)Nc2c(C)c(-c3cnc(C)nc3)nn2-c2ccccc2)[C@H](c2cccc(F)c2)C1 [Compound 1, 1-((3S,4R)-4-(3-fluorophenyl)-1-(2-methoxyethyl)pyrrolidin-3-yl)-3-(4-methyl-3-(2-methylpyrimidin-5-yl)-1-phenyl-1H-pyrazol-5-yl)urea]
